Results as given in patent US9597292B2, “Oral dosage forms of methyl hydrogen fumarate and prodrugs thereof” (XenoPort, Inc., priority 2012, dated 2017).

Tests used:
Type in all cases: in vivo, human
[1] = Safety and tolerability, adverse events in single-dose food effect study (Example 8); conditions: for Feeling Hot (subjects reporting) / Flushing (subjects reporting): 12 subjects
Description: (§1) Twenty-four healthy adult volunteers (males and females) participated in the study. Twelve of the subjects received a dosage form of Example 1, once in a fed condition and once in a fasted condition, with a two-week washout between treatments. Twelve other subjects received a dosage form of Example 2, once in a fed condition and once in a fasted condition, with a two-week washout between treatments. The fasted dosing was achieved by dosing the subject following an overnight fast while the fed dosing was achieved by dosing the subject after consuming a high fat-content breakfast.

[2] = Safety and tolerability, adverse events in single-dose food effect study (Example 15); conditions: for Feeling Hot (subjects reporting) / Flushing (subjects reporting): 12 subjects
Description: (§2) Twelve healthy adult volunteers (males and females) participated in the study. All twelve subjects received a dosage form of Example 9, once in a fed condition and once in a fasted condition, with a two-week washout between treatments. The fasted dosing was achieved by dosing the subject following an overnight fast while the fed dosing was achieved by dosing the subject after consuming a high fat-content breakfast.

[3] = Single-dose food effect pharmacokinetic study in healthy adult subjects (Example 8); conditions: promoiety after oral dosing of Example 2 formulation
Description: as §1
(§3) Urine samples were collected from all subjects prior to dosing, and complete urine output was obtained at the 0-4, 4-8, 8-12, 12-24, 24-36, 36-48, 48-72, 72-96 and 96-120 hour intervals after dosing. Blood samples were quenched immediately with acetonitrile and frozen.

[4] = Single-dose food effect pharmacokinetic study of sustained release dosage form in healthy adult subjects (Example 15); conditions: promoiety after oral dosing of the formulation
Description: as §2, §3

[5] = single 200 mg oral dose, fed and fasted

## CCN(CC)C(=O)COC(=O)/C=C/C(=O)OC [(N,N-Diethylcarbamoyl)methyl methyl (2E)but-2-ene-1,4-dioate]
[1]; Fasted
  Feeling Hot (subjects reporting): no subjects
  Flushing (subjects reporting): No subjects
[1]; Fed
  Feeling Hot (subjects reporting): no subjects
  Flushing (subjects reporting): One
[1]; [5]
  tolerability during the trial: well tolerated
[2]; Fasted
  Feeling Hot (subjects reporting): no subjects
  Flushing (subjects reporting): No subjects
[2]; Fed
  Feeling Hot (subjects reporting): no subjects
  Flushing (subjects reporting): Two
[2]; [5]
  tolerability during the trial: well tolerated

## CCN(CC)C(=O)CO [Promoiety]
[3]
  half life of clearance from blood: around 3 hours
[4]
  half life of clearance from blood: around 3 hours
